In PubChem BioAssay AID256 (DTP/NCI, 2004):
“And” between values parts separate entries of the source, which are not always exact repeats. Equal entries are not always repeated. Toxic doses and inconclusive results are not listed.

Tested on: CD2F1 mice, L1210 leukemia ip, survival T/C
Test: NCI In Vivo Anticancer Drug Screen. Data for tumor model L1210 Leukemia (intraperitoneal) in CD2F1 (CDF1) mice
Conditions: higher = longer survival
In short: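 In this screen, transplantable tumors were grown in mice given either the compound or its vehicle. Results were expressed as the treated measurement relative to the control measurement.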

[1] = endpoint: median survival time, dose: 3.12 mg/kg/injection, schedule: Q04DX003 (ip), vehicle: saline
[2] = endpoint: median survival time, dose: 6.25 mg/kg/injection, schedule: Q04DX003 (ip), vehicle: saline
[3] = endpoint: median survival time, dose: 12.5 mg/kg/injection, schedule: Q04DX003 (ip), vehicle: saline
[4] = endpoint: mean survival time, dose: 50.0 mg/kg/injection, schedule: Q01DX009 (ip), vehicle: saline with Tween-80
[5] = endpoint: mean survival time, dose: 100.0 mg/kg/injection, schedule: Q01DX009 (ip), vehicle: saline with Tween-80
[6] = endpoint: mean survival time, dose: 200.0 mg/kg/injection, schedule: Q01DX009 (ip), vehicle: saline with Tween-80
[7] = endpoint: mean survival time, dose: 400.0 mg/kg/injection, schedule: Q01DX009 (ip), vehicle: saline with Tween-80

For `O=S(=O)(O)c1cc2cc(S(=O)(=O)O)c(O)cc2cc1O.[NH-]C1CCCCC1[NH-].[Pt+2]`, the T/C [1] was 114 % of control and 118 % of control, the T/C [2] was 118 % of control and 110 % of control and the T/C [3] was 113 % of control and 112 % of control. The T/C (endpoint: median survival time, dose: 50.0 mg/kg/injection, schedule: Q04DX003 (ip), vehicle: saline) was 158 % of control, the T/C (endpoint: median survival time, dose: 100.0 mg/kg/injection, schedule: Q04DX003 (ip), vehicle: saline) was 154 % of control and 207 % of control and the T/C (endpoint: median survival time, dose: 200.0 mg/kg/injection, schedule: Q04DX003 (ip), vehicle: saline) was 229 % of control and 365 % of control.

`NC1CCCCC1N.O=C1C=C/C(=C(/c2ccc(O)c(Br)c2)c2ccccc2S(=O)(=O)[O-])C=C1Br.O=C1C=C/C(=C(/c2ccc(O)c(Br)c2)c2ccccc2S(=O)(=O)[O-])C=C1Br.[Pt+4]` was tested, and the T/C [1] was 175 % of control, the T/C [2] was 219 % of control and the T/C [3] was 239 % of control. For the same compound, the T/C (endpoint: median survival time, dose: 25.0 mg/kg/injection, schedule: Q04DX003 (ip), vehicle: saline) was 329 % of control.

For `CCCCCCC(=O)O.[Pb]`, the T/C (endpoint: mean survival time, dose: 75.0 mg/kg/injection, schedule: Q01DX001 (ip), vehicle: other) was 107 % of control, the T/C (endpoint: mean survival time, dose: 150.0 mg/kg/injection, schedule: Q01DX001 (ip), vehicle: other) was 97 % of control and the T/C (endpoint: mean survival time, dose: 300.0 mg/kg/injection, schedule: Q01DX001 (ip), vehicle: other) was 103 % of control.

`N#Cc1cn(C2OC(CO)C(O)C2O)c2ncnc(NC(=O)c3ccccc3)c12` (configuration not stated) was tested, and the T/C (endpoint: mean survival time, dose: 0.78 mg/kg/injection, schedule: Q01DX001 (ip), vehicle: suspension in saline) was 95 % of control, the T/C (endpoint: mean survival time, dose: 1.56 mg/kg/injection, schedule: Q01DX001 (ip), vehicle: suspension in saline) was 106 % of control and the T/C (endpoint: mean survival time, dose: 3.13 mg/kg/injection, schedule: Q01DX001 (ip), vehicle: suspension in saline) was 110 % of control. For the same compound, the T/C (endpoint: mean survival time, dose: 6.25 mg/kg/injection, schedule: Q01DX001 (ip), vehicle: suspension in saline) was 108 % of control and the T/C (endpoint: mean survival time, dose: 12.5 mg/kg/injection, schedule: Q01DX001 (ip), vehicle: suspension in saline) was 111 % of control.

With `CCCC/C=C/C(=O)OCC` the T/C [4] was 91 % of control and 96 % of control, the T/C [5] was 103 % of control and 101 % of control and the T/C [6] was 103 % of control and 101 % of control.

For `CC(CO)CCC(C)CO` (configuration not stated), the T/C (endpoint: mean survival time, dose: 100.0 mg/kg/injection, schedule: Q04DX003 (ip), vehicle: saline with Tween-80) was 100 % of control, the T/C (endpoint: mean survival time, dose: 200.0 mg/kg/injection, schedule: Q04DX003 (ip), vehicle: saline with Tween-80) was 95 % of control and the T/C (endpoint: mean survival time, dose: 400.0 mg/kg/injection, schedule: Q04DX003 (ip), vehicle: saline with Tween-80) was 100 % of control.

In the case of `CCCC/C=C\C1CCCCC1C` (configuration not stated), the T/C [4] is reported as 87 % of control, the T/C [5] is reported as 96 % of control and the T/C [6] is reported as 104 % of control.

In the case of `O=c1[nH]cc(N=Cc2ccccc2F)c(=O)[nH]1.[Cl][Pt][Cl]`, the T/C (endpoint: mean survival time, dose: 3.13 mg/kg/injection, schedule: Q04DX003 (ip), vehicle: water) is reported as 97 % of control, the T/C (endpoint: mean survival time, dose: 6.25 mg/kg/injection, schedule: Q04DX003 (ip), vehicle: water) is reported as 96 % of control and the T/C (endpoint: mean survival time, dose: 12.5 mg/kg/injection, schedule: Q04DX003 (ip), vehicle: water) is reported as 97 % of control. The T/C (endpoint: mean survival time, dose: 25.0 mg/kg/injection, schedule: Q04DX003 (ip), vehicle: water) was 100 % of control, the T/C (endpoint: mean survival time, dose: 50.0 mg/kg/injection, schedule: Q04DX003 (ip), vehicle: water) was 97 % of control and the T/C (endpoint: mean survival time, dose: 100.0 mg/kg/injection, schedule: Q04DX003 (ip), vehicle: water) was 91 % of control. For the same compound, the T/C (endpoint: mean survival time, dose: 200.0 mg/kg/injection, schedule: Q04DX003 (ip), vehicle: water) was 100 % of control.

`C(/C=C\c1ccccc1)=Nc1ccccc1` was tested, and the T/C (endpoint: mean survival time, dose: 25.0 mg/kg/injection, schedule: Q01DX009 (ip), vehicle: Klucel (hydroxypropylcellulose) (HPC)) was 93 % of control, the T/C (endpoint: mean survival time, dose: 50.0 mg/kg/injection, schedule: Q01DX009 (ip), vehicle: Klucel (hydroxypropylcellulose) (HPC)) was 93 % of control and the T/C (endpoint: mean survival time, dose: 100.0 mg/kg/injection, schedule: Q01DX001 (ip), vehicle: saline sonified) was 93 % of control. For the same compound, the T/C (endpoint: mean survival time, dose: 100.0 mg/kg/injection, schedule: Q01DX009 (ip), vehicle: Klucel (hydroxypropylcellulose) (HPC)) was 95 % of control, the T/C [5] was 101 % of control and the T/C [6] was 97 % of control. For the same compound, the T/C [7] was 92 % of control.

`Nc1nnn(CCO)n1` was tested, and the T/C [5] was 100 % of control, the T/C [6] was 97 % of control and the T/C [7] was 96 % of control.

In the case of `S=c1[nH]nc(Nc2ccccc2Cl)s1`, the T/C (endpoint: mean survival time, dose: 100.0 mg/kg/injection, schedule: Q04DX003 (ip), vehicle: Klucel (hydroxypropylcellulose) (HPC)) is reported as 95 % of control, the T/C (endpoint: mean survival time, dose: 200.0 mg/kg/injection, schedule: Q04DX003 (ip), vehicle: Klucel (hydroxypropylcellulose) (HPC)) is reported as 95 % of control and the T/C (endpoint: mean survival time, dose: 400.0 mg/kg/injection, schedule: Q04DX003 (ip), vehicle: Klucel (hydroxypropylcellulose) (HPC)) is reported as 95 % of control.
